# Test results taken from article PMC12756723, “Derivatives of the Cashew Nut Shell Liquid as Ligands of Pseudomonas aeruginosa Phenazine Protein D (PaPhzD)” (ACS Omega, 2025).
# Entries after “also recorded” stand apart in the source; their conditions may differ.
# Legend:
# PaPhzD-FITC = target: T1, PaPhzD-FITC (Pseudomonas aeruginosa, UniProt P0DPB9); test: Fluorescence binding assay with FITC-labeled PaPhzD; settings: 0.32 μM FITC-labeled PaPhzD, 25 °C, 3-parameter fit; read-out: Kd
# T1 construct: inferred from Ni-NTA purification with imidazole elution; made in house; host or cells: E. coli BL21(DE3)
# Method: PaPhzD (2.1 mg/mL) was incubated with 6 mg/mL fluorescein isothiocyanate (FITC) (Sigma-Aldrich 46950) (1:1) for 2 h at 25 °C. Next, the reaction mixture was eluted on a Hi-Trap HP desalting column (GE Healthcare) with 2 CV of 50 mM HEPES buffer (pH 8.0). The collected fractions were quantified at two different wavelengths (280 and 495 nm), and the molar ratio (Abs495/Abs280) ranging from 0.3 to 1.0 was employed for K d calculation experiments.
# Subsequently, the fluorescence intensity of 0.32 μM of FITC-labeled PaPhzD was measured on a real-time thermocycler (Applied Biosystems 7500) equipped with the filter FAN (excitation wavelength: 498 nm; emission wavelength: 530 nm) for 10 min in the presence of different concentrations of each LDT compound (ranging 0.7–100 μM), previously diluted in DMSO.
# The fluorescence raw data were recorded using Applied Biosystems 7500 Software v2.0, then exported to GraphPad Prism version 9.0 software to build fluorescence intensity × concentration plots and calculate K d values of the ligands by the nonlinear regression method (3-parameter fit). All experiments were carried out in triplicate using a 96-well PCR plate, manually sealed with transparent capping strips (Flatcap strips, BioRadVR).
# KinA/SPOOF = system: KinA/SPOOF; set-up: method as in Kanojia et al.; settings: KinA/SPOOF from B. subtilis; ref Kanojia et al.; cited from earlier work
# P. aeruginosa PA14 = test: Biofilm assay (crystal violet); format: cell-based, Pseudomonas aeruginosa; settings: 100 μM, vs DMSO control
# Method: Exponential phase cultures of P. aeruginosa PA14 were diluted to 5 × 10^5 colony forming units (CFU) in 48-well plates with LB containing each compound (1, 3, and 5) at 100 μM final concentrations or 0.1% DMSO (v/v) as a negative control. The plate was incubated steadily at 30 °C for 20 h inside a plastic bag to avoid evaporation. After the incubation, the OD600 of each well was measured in a plate reader (SpectraMax Paradigm). The planktonic bacteria were removed by turning the plate over the waste, followed by three steps of washing with distilled water. After drying, a solution of 1% crystal violet was added to each well and incubated at room temperature for 30 min to stain the attached cells forming a ring at the air–liquid interface. The crystal violet solution was removed, and the plate was washed using the same procedure. The dye was solubilized with 30% acetic acid for 30 min at room temperature. The Abs550 was measured, and the value was divided by the OD600 for each well. A total of 24 replicates were made for each treatment (6 wells per plate, four plates)
# T1 sequence (P0DPB9 whole entry): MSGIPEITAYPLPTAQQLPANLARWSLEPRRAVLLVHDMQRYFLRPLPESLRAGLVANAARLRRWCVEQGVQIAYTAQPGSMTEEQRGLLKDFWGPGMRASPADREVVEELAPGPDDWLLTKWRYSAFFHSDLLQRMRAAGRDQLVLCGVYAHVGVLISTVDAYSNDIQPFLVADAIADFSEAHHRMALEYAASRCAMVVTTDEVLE
smiles,measurement,setting,value
CCCCCCCCCCCCCCCc1cccc(O)c1 [Compound 2],Kd,PaPhzD-FITC,2.8 µM
same,IC50,KinA/SPOOF,> 500 µM
same,Effect on biofilm formation,P. aeruginosa PA14,without affecting bacterial growth or biofilm formation; also recorded: not significantly different the control
